Test results taken from US9452986B2, “6-heteroaryloxy- or 6-aryloxy-quinoline-2-carboxamides and method of use” (AbbVie Inc., priority 2014, dated 2016).
Like-named read-outs stand apart in the source and are kept apart here.

Target: recombinant human Nav1.7 (Homo sapiens (Human), UniProt Q15858)
Test: FRET-based membrane potential assay, recombinant human sodium channel Nav1.7
Type: cell-based
Conditions: read-out: FRET-Membrane Potential Nav1.7 IC50
Procedure, shortened: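 Channel activation used veratridine at its EC80, set by a dilution curve each experiment, together with Leiurus scorpion venom, added 3 min after compound. Membrane-potential ratio signals from FLIPR Tetra in HEPES-buffered HBSS were fitted to a four-parameter Hill equation for percent inhibition and IC50.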

[1] = HEK293 cells stably expressing recombinant human Nav1.7, veratridine + scorpion venom depolarization

Sequence of recombinant human Nav1.7 (Q15858 whole entry): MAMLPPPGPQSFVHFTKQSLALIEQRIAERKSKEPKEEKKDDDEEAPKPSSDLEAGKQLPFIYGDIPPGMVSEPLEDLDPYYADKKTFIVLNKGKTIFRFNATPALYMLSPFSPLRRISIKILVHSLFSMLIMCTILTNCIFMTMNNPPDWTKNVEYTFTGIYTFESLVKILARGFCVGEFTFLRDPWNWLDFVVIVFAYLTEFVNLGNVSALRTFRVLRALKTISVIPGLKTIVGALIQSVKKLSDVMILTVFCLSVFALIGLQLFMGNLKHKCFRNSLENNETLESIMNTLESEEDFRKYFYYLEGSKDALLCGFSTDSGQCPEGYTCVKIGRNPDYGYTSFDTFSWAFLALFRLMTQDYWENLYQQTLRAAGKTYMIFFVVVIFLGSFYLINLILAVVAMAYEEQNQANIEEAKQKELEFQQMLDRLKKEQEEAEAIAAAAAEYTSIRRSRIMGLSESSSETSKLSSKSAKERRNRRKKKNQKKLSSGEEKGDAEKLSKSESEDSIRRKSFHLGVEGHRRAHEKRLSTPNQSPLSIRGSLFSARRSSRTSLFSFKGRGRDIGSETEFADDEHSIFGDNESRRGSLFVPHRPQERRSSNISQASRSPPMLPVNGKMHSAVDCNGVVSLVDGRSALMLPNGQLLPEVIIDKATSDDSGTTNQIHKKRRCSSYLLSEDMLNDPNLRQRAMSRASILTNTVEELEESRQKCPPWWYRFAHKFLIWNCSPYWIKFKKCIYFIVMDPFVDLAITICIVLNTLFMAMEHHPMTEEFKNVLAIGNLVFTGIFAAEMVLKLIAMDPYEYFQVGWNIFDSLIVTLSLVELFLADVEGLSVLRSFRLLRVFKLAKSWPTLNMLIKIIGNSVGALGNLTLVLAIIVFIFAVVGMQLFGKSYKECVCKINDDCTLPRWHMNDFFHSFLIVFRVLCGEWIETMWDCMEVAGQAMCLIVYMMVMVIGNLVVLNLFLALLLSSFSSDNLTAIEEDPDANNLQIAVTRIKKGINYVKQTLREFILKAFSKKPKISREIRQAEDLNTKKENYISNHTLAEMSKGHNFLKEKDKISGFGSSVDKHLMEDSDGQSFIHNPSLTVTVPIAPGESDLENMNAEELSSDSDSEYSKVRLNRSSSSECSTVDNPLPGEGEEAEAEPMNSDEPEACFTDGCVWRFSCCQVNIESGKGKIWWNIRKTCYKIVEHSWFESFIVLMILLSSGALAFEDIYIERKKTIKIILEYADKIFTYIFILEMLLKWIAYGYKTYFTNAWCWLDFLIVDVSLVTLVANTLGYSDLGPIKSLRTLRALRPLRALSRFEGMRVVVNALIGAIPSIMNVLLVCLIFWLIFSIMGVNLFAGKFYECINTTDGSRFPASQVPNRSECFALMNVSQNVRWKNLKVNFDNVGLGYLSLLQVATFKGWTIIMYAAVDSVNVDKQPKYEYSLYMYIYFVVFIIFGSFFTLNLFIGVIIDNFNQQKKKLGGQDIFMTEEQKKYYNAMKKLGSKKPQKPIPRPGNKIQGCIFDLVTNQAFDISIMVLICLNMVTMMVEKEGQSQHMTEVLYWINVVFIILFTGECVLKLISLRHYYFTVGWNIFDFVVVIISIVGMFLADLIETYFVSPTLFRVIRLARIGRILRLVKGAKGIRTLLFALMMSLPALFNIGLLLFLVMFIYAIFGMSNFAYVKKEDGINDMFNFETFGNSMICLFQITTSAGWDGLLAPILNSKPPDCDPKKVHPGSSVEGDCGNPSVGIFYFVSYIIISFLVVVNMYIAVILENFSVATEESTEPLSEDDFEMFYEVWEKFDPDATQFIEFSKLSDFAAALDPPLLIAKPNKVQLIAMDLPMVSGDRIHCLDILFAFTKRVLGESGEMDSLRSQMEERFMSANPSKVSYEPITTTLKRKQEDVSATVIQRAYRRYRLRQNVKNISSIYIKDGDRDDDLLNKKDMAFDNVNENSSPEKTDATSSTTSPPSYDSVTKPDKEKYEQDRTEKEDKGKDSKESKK

| Structure (SMILES) | IC50 [1] [nM] | IC50 [nM] |
| --- | --- | --- |
| O=C(c1ccc2cc(Oc3ccc(C(F)(F)F)cn3)ccc2n1)N1CC(Oc2ccc(Br)cc2)C1 [Example 206, [3-(4-bromophenoxy)azetidin-1-yl](6-{[5-(trifluoromethyl)pyridin-2-yl]oxy}quinolin-2-yl)methanone] | > 20000 |  |
| O=C(c1ccc2cc(Oc3ccc(C(F)(F)F)cn3)ccc2n1)N1CCc2ccncc2C1 [Example 222, 3,4-dihydro-2,7-naphthyridin-2(1H)-yl(6-{[5-(trifluoromethyl)pyridin-2-yl]oxy}quinolin-2-yl)methanone] | 2150 |  |
| C[C@H]1CN(C(=O)c2ccc3cc(Oc4ccc(C(F)(F)F)nc4)ccc3n2)CCN1 [Example 549, [(3S)-3-methylpiperazin-1-yl](6-{[6-(trifluoromethyl)pyridin-3-yl]oxy}quinolin-2-yl)methanone] | 2490 |  |
| O=C(NCCN1CCOC1=O)c1ccc2cc(Oc3ccc(C(F)(F)F)cn3)ccc2n1 [Example 605, N-[2-(2-oxo-1,3-oxazolidin-3-yl)ethyl]-6-{[5-(trifluoromethyl)pyridin-2-yl]oxy}quinoline-2-carboxamide] | 2880 |  |
| CC(C)OC(=O)N1CCN(C(=O)c2ccc3cc(Oc4ccc(C(F)(F)F)cn4)ccc3n2)CC1 [Example 277, isopropyl 4-[(6-{[5-(trifluoromethyl)pyridin-2-yl]oxy}quinolin-2-yl)carbonyl]piperazine-1-carboxylate] | 3090 |  |
| CO[C@H]1C[C@H](NC(=O)c2ccc3cc(Oc4ccc(C(F)(F)F)cn4)ccc3n2)C1 [Example 397, N-(trans-3-methoxycyclobutyl)-6-{[5-(trifluoromethyl)pyridin-2-yl]oxy}quinoline-2-carboxamide] | 896 |  |
| O=C(c1ccc2cc(Oc3ccc(C(F)(F)F)cn3)ccc2n1)N1CCC[C@@]12CC[C@H](O)C2 [Example 313, [(5S,7S)-7-hydroxy-1-azaspiro[4.4]non-1-yl](6-{[5-(trifluoromethyl)pyridin-2-yl]oxy}quinolin-2-yl)methanone] | 14000 |  |
| O=C(c1ccc2cc(Oc3ccc(C(F)(F)F)cn3)ccc2n1)N1CC2CNCCN2C1=O (stereo not drawn) [Example 189, 2-[(6-{[5-(trifluoromethyl)pyridin-2-yl]oxy}quinolin-2-yl)carbonyl]hexahydroimidazo[1,5-a]pyrazin-3(2H)-one] | 15100 |  |
| O=C(NCC(=O)N1CCC(F)C1)c1ccc2cc(Oc3ccc(C(F)(F)F)cn3)ccc2n1 (stereo not drawn) [Example 573, N-[2-(3-fluoropyrrolidin-1-yl)-2-oxoethyl]-6-{[5-(trifluoromethyl)pyridin-2-yl]oxy}quinoline-2-carboxamide] | 987 |  |
| O=C(NCC1(O)COC1)c1ccc2cc(Oc3ccc(C(F)(F)F)cn3)ccc2n1 [Example 412, N-[(3-hydroxyoxetan-3-yl)methyl]-6-{[5-(trifluoromethyl)pyridin-2-yl]oxy}quinoline-2-carboxamide] |  | 513 |
| O=C(c1ccc2cc(Oc3ccc(C(F)(F)F)cn3)ccc2n1)N1CCNC2(CCC2)C1 [Example 418, 5,8-diazaspiro[3.5]non-8-yl(6-{[5-(trifluoromethyl)pyridin-2-yl]oxy}quinolin-2-yl)methanone] | 539 |  |
| CN(CC(=O)NC1CC1)C(=O)c1ccc2cc(Oc3ccc(C(F)(F)F)cn3)ccc2n1 [Example 452, N-[2-(cyclopropylamino)-2-oxoethyl]-N-methyl-6-{[5-(trifluoromethyl)pyridin-2-yl]oxy}quinoline-2-carboxamide] | 3210 |  |
| N#Cc1ccc(Oc2ccc3nc(C(=O)NC4(CO)CC4)ccc3c2)cc1 [Example 123, 6-(4-cyanophenoxy)-N-[1-(hydroxymethyl)cyclopropyl]quinoline-2-carboxamide] |  | 6550 |
| Cc1cnc(Oc2ccc3nc(C(=O)NC4CCS(=O)(=O)C4)ccc3c2)nc1 (stereo not drawn) [Example 161, N-(1,1-dioxidotetrahydrothiophen-3-yl)-6-[(5-methylpyrimidin-2-yl)oxy]quinoline-2-carboxamide] |  | > 20000 |
| CC1(CN2CCN(C(=O)c3ccc4cc(Oc5ccc(C(F)(F)F)cn5)ccc4n3)CC2)COC1 [Example 286, {4-[(3-methyloxetan-3-yl)methyl]piperazin-1-yl}(6-{[5-(trifluoromethyl)pyridin-2-yl]oxy}quinolin-2-yl)methanone] | 11400 |  |
| O=C(c1ccc2cc(Oc3ccc(C(F)(F)F)cn3)ccc2n1)N1CCc2[nH]cnc2C1 [Example 360, 1,4,6,7-tetrahydro-5H-imidazo[4,5-c]pyridin-5-yl(6-{[5-(trifluoromethyl)pyridin-2-yl]oxy}quinolin-2-yl)methanone] |  | 1090 |
| O=C(NCCN1CCCCC1)c1ccc2cc(Oc3ccc(C(F)(F)F)cn3)ccc2n1 [Example 175, N-[2-(piperidin-1-yl)ethyl]-6-{[5-(trifluoromethyl)pyridin-2-yl]oxy}quinoline-2-carboxamide] | 206 |  |
| O=C(c1ccc2cc(Oc3ccc(C(F)(F)F)cn3)ccc2n1)N1CCC2(CC1)OCCO2 [Example 240, 1,4-dioxa-8-azaspiro[4.5]dec-8-yl(6-{[5-(trifluoromethyl)pyridin-2-yl]oxy}quinolin-2-yl)methanone] | 2010 |  |
| N#Cc1ccc(Oc2ccc3nc(C(=O)N[C@H]4CC[C@@H](O)CC4)ccc3c2)cc1 [Example 133, 6-(4-cyanophenoxy)-N-(cis-4-hydroxycyclohexyl)quinoline-2-carboxamide] | 1170 |  |
| CNC(=O)c1ccc2cc(Oc3ccc(C(F)(F)F)cn3)ccc2n1 [Example 527, N-methyl-6-{[5-(trifluoromethyl)pyridin-2-yl]oxy}quinoline-2-carboxamide] |  | 5910 |
| N#Cc1ccc(Oc2ccc3nc(C(=O)NCc4ccc5c(c4)OCO5)ccc3c2)cc1 [Example 104, N-(1,3-benzodioxol-5-ylmethyl)-6-(4-cyanophenoxy)quinoline-2-carboxamide] | > 20000 |  |
| O=C(NCC(F)F)c1ccc2cc(Oc3ccc(C(F)(F)F)cn3)ccc2n1 [Example 347, N-(2,2-difluoroethyl)-6-{[5-(trifluoromethyl)pyridin-2-yl]oxy}quinoline-2-carboxamide] | 2630 |  |
| CS(=O)(=O)C1CN(C(=O)c2ccc3cc(Oc4ccc(C(F)(F)F)nc4)ccc3n2)C1 [Example 534, [3-(methylsulfonyl)azetidin-1-yl](6-{[6-(trifluoromethyl)pyridin-3-yl]oxy}quinolin-2-yl)methanone] | 1970 |  |
| O=C(c1ccc2cc(Oc3ccc(C(F)(F)F)cn3)ccc2n1)N1CCN(c2ncccn2)CC1 [Example 270, [4-(pyrimidin-2-yl)piperazin-1-yl](6-{[5-(trifluoromethyl)pyridin-2-yl]oxy}quinolin-2-yl)methanone] | 3080 |  |
| O=C(c1ccc2cc(Oc3ccc(C(F)(F)F)cn3)ccc2n1)N1CCOC(CO)C1 (stereo not drawn) [Example 339, [2-(hydroxymethyl)morpholin-4-yl](6-{[5-(trifluoromethyl)pyridin-2-yl]oxy}quinolin-2-yl)methanone] | 14400 |  |
| COCCNC(=O)CN(C)C(=O)c1ccc2cc(Oc3ccc(C(F)(F)F)cn3)ccc2n1 [Example 442, N-{2-[(2-methoxyethyl)amino]-2-oxoethyl}-N-methyl-6-{[5-(trifluoromethyl)pyridin-2-yl]oxy}quinoline-2-carboxamide] | 5520 |  |
| CC(=O)NCCCNC(=O)c1ccc2cc(Oc3ccc(C(F)(F)F)cn3)ccc2n1 [Example 613, N-(3-acetamidopropyl)-6-{[5-(trifluoromethyl)pyridin-2-yl]oxy}quinoline-2-carboxamide] | 2210 |  |
